Patent US20250025523A1, “COMPOSITION FOR PREVENTING OR TREATING MUSCLE DISEASE COMPRISING SARGASSUM SERRATIFOLIUM EXTRACT” (PUKYONG NATIONAL UNIVERSITY INDUSTRY- UNIVERSITY …, priority 2021, published 2025)

Assay: Body weight change in dexamethasone muscle atrophy mouse model
Type: in vivo, C57BL/6 mice
Settings: DEX group: dexamethasone 10 mg/kg/day i.p. 4 weeks, olive oil orally; at sacrifice
Description: Specifically, three-week-old male C57BL/6 mice were provided with free access to water and food and were acclimated under conditions of 23±2° C., relative humidity of 50±5%, and a 12-hour light/dark cycle. […] In the untreated group, an equivalent volume of saline was administered intraperitoneally. Body weight and food intake were evaluated daily. The experiment was conducted with the approval of the Pukyong National University Animal Care and Use Committee, in accordance with Pukyong National University's animal experiment ethics regulations.

C[C@@H]1C[C@H]2[C@@H]3CCC4=CC(=O)C=C[C@]4(C)[C@@]3(F)[C@@H](O)C[C@]2(C)[C@@]1(O)C(=O)CO [DEX, dexamethasone]
Body weight (g) Sacrifice [B]: 27.9 ± 3.25 g
